Data on 5 molecules can be found in PubChem BioAssay AID1259407 (Chemical Carcinogenesis Research Information System (CCRIS), 2018).

Active and inactive are the calls of the source. No rule for the calls is given here.

The subject of the data set is CCRIS mutagenicity, Ames/micronucleus/aberration tests. As to the kind of experiment: CCRIS mutagenicity studies.
[1] abbreviates: Test System: AMES SALMONELLA TYPHIMURIUM, Strain/Indicator: TA98, Metabolic Activation: NONE, Method: PREINCUBATION
Where [2] appears, read: Test System: AMES SALMONELLA TYPHIMURIUM, Strain/Indicator: TA100, Metabolic Activation: NONE, Method: PREINCUBATION
[3] abbreviates: Test System: AMES SALMONELLA TYPHIMURIUM, Strain/Indicator: TA1535, Metabolic Activation: NONE, Method: PREINCUBATION
[4] abbreviates: Test System: AMES SALMONELLA TYPHIMURIUM, Strain/Indicator: TA1537, Metabolic Activation: NONE, Method: PREINCUBATION

Turning to `O=C1NC(=O)c2cc([N+](=O)[O-])ccc21`, the mutagenic call by setting is: (Test System: AMES SALMONELLA TYPHIMURIUM, Strain/Indicator: TA97, Metabolic Activation: HAMSTER, LIVER, S-9, AROCLOR 1254 (10%), Method: PREINCUBATION) “inactive; negative”; (Test System: AMES SALMONELLA TYPHIMURIUM, Strain/Indicator: TA97, Metabolic Activation: NONE, Method: PREINCUBATION) “active; positive”; (Test System: AMES SALMONELLA TYPHIMURIUM, Strain/Indicator: TA97, Metabolic Activation: RAT, LIVER, S-9, AROCLOR 1254 (10%), Method: PREINCUBATION) “inactive; negative”; (Test System: AMES SALMONELLA TYPHIMURIUM, Strain/Indicator: TA98, Metabolic Activation: HAMSTER, LIVER, S-9, AROCLOR 1254 (10%), Method: PREINCUBATION) “active; positive”; under setting [1], “active; positive”; (Test System: AMES SALMONELLA TYPHIMURIUM, Strain/Indicator: TA98, Metabolic Activation: RAT, LIVER, S-9, AROCLOR 1254 (10%), Method: PREINCUBATION) “active; positive”. The mutagenic call reads like this: (Test System: AMES SALMONELLA TYPHIMURIUM, Strain/Indicator: TA100, Metabolic Activation: HAMSTER, LIVER, S-9, AROCLOR 1254 (10%), Method: PREINCUBATION) “inactive; negative”; under setting [2], “inactive; negative”; (Test System: AMES SALMONELLA TYPHIMURIUM, Strain/Indicator: TA100, Metabolic Activation: RAT, LIVER, S-9, AROCLOR 1254 (10%), Method: PREINCUBATION) “inactive; negative”; (Test System: AMES SALMONELLA TYPHIMURIUM, Strain/Indicator: TA1535, Metabolic Activation: HAMSTER, LIVER, S-9, AROCLOR 1254 (10%), Method: PREINCUBATION) “inactive; negative”; under setting [3], “inactive; negative”; (Test System: AMES SALMONELLA TYPHIMURIUM, Strain/Indicator: TA1535, Metabolic Activation: RAT, LIVER, S-9, AROCLOR 1254 (10%), Method: PREINCUBATION) “inactive; negative”. Besides, the mutagenic call is, setting by setting: (Test System: AMES SALMONELLA TYPHIMURIUM, Strain/Indicator: TA1537, Metabolic Activation: HAMSTER, LIVER, S-9, AROCLOR 1254 (10%), Method: PREINCUBATION) “active; positive”; under setting [4], “active; positive”; (Test System: AMES SALMONELLA TYPHIMURIUM, Strain/Indicator: TA1537, Metabolic Activation: RAT, LIVER, S-9, AROCLOR 1254 (10%), Method: PREINCUBATION) “active; positive”.
For the molecule `Cc1cnccn1`, the mutagenic call was “inactive; negative” under setting [1]; “inactive; negative” (Test System: AMES SALMONELLA TYPHIMURIUM, Strain/Indicator: TA98, Metabolic Activation: RAT, LIVER, S-9, AROCLOR 1254, Method: PREINCUBATION); “inactive; negative” under setting [2]; “inactive; negative” (Test System: AMES SALMONELLA TYPHIMURIUM, Strain/Indicator: TA100, Metabolic Activation: RAT, LIVER, S-9, AROCLOR 1254, Method: PREINCUBATION); “inactive; negative” (Test System: AMES SALMONELLA TYPHIMURIUM, Strain/Indicator: TA102, Metabolic Activation: NONE, Method: PREINCUBATION); “inactive; negative” (Test System: AMES SALMONELLA TYPHIMURIUM, Strain/Indicator: TA102, Metabolic Activation: RAT, LIVER, S-9, AROCLOR 1254, Method: PREINCUBATION).
Turning to `COc1cc(O)c2c(c1)C(=O)c1c(O)c(C)cc(O)c1C2=O`, the mutagenic call is “inactive; negative” (Test System: AMES SALMONELLA TYPHIMURIUM, Strain/Indicator: TA1537, Metabolic Activation: NONE, Method: STANDARD PLATE) and “active; positive” (Test System: AMES SALMONELLA TYPHIMURIUM, Strain/Indicator: TA1537, Metabolic Activation: S-9, Method: STANDARD PLATE).
Take `O=C(O)CBr`: the mutagenic call (End Point: IN VITRO CHROMOSOMAL ABERRATIONS, Test System: CHL CELLS, Metabolic Activation: NONE) was “active; positive (structural changes)”; the mutagenic call (End Point: IN VITRO CHROMOSOMAL ABERRATIONS, Test System: CHL CELLS, Metabolic Activation: RAT, LIVER, S-9, SODIUM PHENOBARBITAL AND 5,6-BENZOFLAVONE) is “active; positive (structural changes)”; the mutagenic call (Test System: AMES SALMONELLA TYPHIMURIUM, Strain/Indicator: RSJ100, Metabolic Activation: NONE, Method: PREINCUBATION) is “inactive; negative”; the mutagenic call (Test System: AMES SALMONELLA TYPHIMURIUM, Strain/Indicator: RSJ100, Metabolic Activation: RAT LIVER S-9, AROCLOR 1254, Method: PREINCUBATION) is “inactive; negative”; the mutagenic call (Test System: AMES SALMONELLA TYPHIMURIUM, Strain/Indicator: TA98, Metabolic Activation: RAT LIVER S-9, AROCLOR 1254, Method: PREINCUBATION) was “active; positive”; the mutagenic call (Test System: AMES SALMONELLA TYPHIMURIUM, Strain/Indicator: TA98, Metabolic Activation: RAT LIVER S-9, PHENOBARBITAL AND BETA-NAPHTHOFLAVONE, Method: PREINCUBATION) is “inactive; negative”. Besides, the mutagenic call (Test System: AMES SALMONELLA TYPHIMURIUM, Strain/Indicator: TA100, Metabolic Activation: NONE, Method: FLUCTUATION TEST) was “inactive; negative”; the mutagenic call under setting [2] was “active; positive”; the mutagenic call (Test System: AMES SALMONELLA TYPHIMURIUM, Strain/Indicator: TA100, Metabolic Activation: RAT LIVER S-9, AROCLOR 1254, Method: PREINCUBATION) is “active; positive”; the mutagenic call (Test System: AMES SALMONELLA TYPHIMURIUM, Strain/Indicator: TA100, Metabolic Activation: RAT LIVER S-9, PHENOBARBITAL AND BETA-NAPHTHOFLAVONE, Method: PREINCUBATION) was “inactive; negative”; the mutagenic call (Test System: AMES SALMONELLA TYPHIMURIUM, Strain/Indicator: TA100, Metabolic Activation: RAT, LIVER, S-9, AROCLOR 1254, Method: FLUCTUATION TEST) was “active; positive”; the mutagenic call under setting [3] is “inactive; negative”. Further, the mutagenic call is, setting by setting: (Test System: AMES SALMONELLA TYPHIMURIUM, Strain/Indicator: TA1535, Metabolic Activation: RAT LIVER S-9, PHENOBARBITAL AND BETA-NAPHTHOFLAVONE, Method: PREINCUBATION) “inactive; negative”; under setting [4], “inactive; negative”; (Test System: AMES SALMONELLA TYPHIMURIUM, Strain/Indicator: TA1537, Metabolic Activation: RAT LIVER S-9, PHENOBARBITAL AND BETA-NAPHTHOFLAVONE, Method: PREINCUBATION) “inactive; negative”; (Test System: E.COLI, Strain/Indicator: WP2UVRA, Metabolic Activation: NONE, Method: PREINCUBATION) “inactive; negative”; (Test System: E.COLI, Strain/Indicator: WP2UVRA, Metabolic Activation: RAT LIVER S-9, PHENOBARBITAL AND BETA-NAPHTHOFLAVONE, Method: PREINCUBATION) “inactive; negative”.
For the molecule `CCCC[C@@H](C)[C@@H](OC(=O)C[C@@H](CC(=O)O)C(=O)O)[C@H](C[C@@H](C)C[C@H](O)CCCC[C@@H](O)C[C@H](O)[C@H](C)N)OC(=O)C[C@@H](CC(=O)O)C(=O)O`, the mutagenic call is “inactive; negative” (Test System: AMES SALMONELLA TYPHIMURIUM, Strain/Indicator: TA97A, Metabolic Activation: NONE, Method: STANDARD PLATE); “inactive; negative” (Test System: AMES SALMONELLA TYPHIMURIUM, Strain/Indicator: TA97A, Metabolic Activation: RAT, LIVER, S-9, AROCLOR 1254, Method: STANDARD PLATE); “inactive; negative” (Test System: AMES SALMONELLA TYPHIMURIUM, Strain/Indicator: TA98, Metabolic Activation: NONE, Method: STANDARD PLATE); “inactive; negative” (Test System: AMES SALMONELLA TYPHIMURIUM, Strain/Indicator: TA98, Metabolic Activation: RAT LIVER S-9, Method: STANDARD PLATE); “inactive; negative” (Test System: AMES SALMONELLA TYPHIMURIUM, Strain/Indicator: TA98, Metabolic Activation: RAT, LIVER, S-9, AROCLOR 1254, Method: STANDARD PLATE); “inactive; negative” (Test System: AMES SALMONELLA TYPHIMURIUM, Strain/Indicator: TA100, Metabolic Activation: NONE, Method: STANDARD PLATE). Also, the mutagenic call (Test System: AMES SALMONELLA TYPHIMURIUM, Strain/Indicator: TA100, Metabolic Activation: RAT LIVER S-9, Method: STANDARD PLATE) was “inactive; negative”; the mutagenic call (Test System: AMES SALMONELLA TYPHIMURIUM, Strain/Indicator: TA100, Metabolic Activation: RAT, LIVER, S-9, AROCLOR 1254, Method: STANDARD PLATE) was “inactive; negative”; the mutagenic call (Test System: AMES SALMONELLA TYPHIMURIUM, Strain/Indicator: TA102, Metabolic Activation: NONE, Method: STANDARD PLATE) is “inactive; negative”; the mutagenic call (Test System: AMES SALMONELLA TYPHIMURIUM, Strain/Indicator: TA102, Metabolic Activation: RAT LIVER S-9, Method: STANDARD PLATE) was “inactive; negative”; the mutagenic call (Test System: AMES SALMONELLA TYPHIMURIUM, Strain/Indicator: TA102, Metabolic Activation: RAT, LIVER, S-9, AROCLOR 1254, Method: STANDARD PLATE) was “inactive; negative”.
